{"source": "paper PMC12606464", "about": "“Investigating NFE2L1 activators for targeted protein aggregate clearance: a follow-up study” (RSC Medicinal Chemistry, 2025)", "tested_on": "HCT116 cells expressing EGFP-HttQ74", "experiment": "PolyQ toxicity assay (EGFP-HttQ74, alamarBlue) in HCT116 WT and DDI2 KO cells", "format": "cell-based, human", "conditions": "48 h", "procedure": "Fig. 3 (A) HEK293 cells were treated with RUN compounds at a concentration of 7.5 μM for 16 hours. DMSO was used as a vehicle control. Proteasome chymotrypsin-like activity was measured in cell lysates at 37 °C. Data came from three biological replicates (n = 3). Statistical analysis was done using ratio paired t-tests corrected for multiple comparisons with Holm–Šídák's method (α = 0.05). *p < 0.05. Detailed results of the analysis are shown in SI Table S7. […] HCT116 parental cells (WT) and two independent DDI2 knockout clones (KO 04 and KO 11), in which NFE2L1 activation is impaired, were transiently transfected with plasmids encoding non-aggregating EGFP-HttQ23 or aggregation-prone EGFP-HttQ74. Cells were treated with 1 or 3 μM RUN-89 for 48 hours, and viability was measured using the alamarBlue assay. […] Data are shown as the Geomean ± GeoSD from four independent biological replicates (n = 4). Statistical analysis was performed on log2-transformed values using two-way repeated-measures ANOVA followed by Šídak's multiple comparison test. (C right) Parental SH-SY5Y cells (without α-synuclein expression) were treated in the same manner. (C left) The protective effect of RUN compounds was assessed by rotenone-induced α-synuclein proteotoxicity in SH-SY5Y cells, which mimics the PD-like phenotype. Cells were pre-treated with increasing concentrations of RUN compounds (0.312, 0.625, 1.25, and 2.5 μM) for 4 hours and then rotenone (1.125 μM) treatment was done for 24 hours.\nTo further evaluate the protective capacity of RUN-89 in a polyQ aggregation model, we transiently transfected HCT116 parental cells (wt) and DDI2 knockout clones (KO4 and KO11) with plasmids encoding either a non-aggregating EGFP-HttQ23 or an aggregation-prone EGFP-HttQ74 construct. This model is widely used to study Huntington's disease (HD), a prototypical polyglutamine expansion disorder caused by expanded CAG repeats in the huntingtin gene.[67–69] […] Cells were treated with increasing concentrations of RUN-89 (1 and 3 μM) for 48 h, and viability was assessed using the alamarBlue assay (Fig. 3B). […]"}
{"smiles": "COc1ccc(/C=C2\\CC(NC(=O)C3CCCC3)C/C(=C\\c3ccc(OC)c(OC)c3)C2=O)cc1OC", "note": "(centres unmarked) [RUN-89]", "values": [{"measurement": "Protective effect in DDI2-deficient clones expressing HttQ74", "setting": "1 and 3 μM", "result": "strongly reduced"}, {"measurement": "Survival of wild-type cells expressing HttQ74", "setting": "1 and 3 μM", "result": "significantly improved survival"}, {"measurement": "Viability of EGFP-HttQ74 cells (mean), KO 04, 1 μM", "setting": "HCT116 DDI2-/- KO 04, 1 μM, alamarBlue", "result": 41.44}, {"measurement": "Viability of EGFP-HttQ74 cells (mean), KO 04, 3 μM", "setting": "HCT116 DDI2-/- KO 04, 3 μM, alamarBlue", "result": 16.49}, {"measurement": "Viability of EGFP-HttQ74 cells (mean), KO 11, 1 μM", "setting": "HCT116 DDI2-/- KO 11, 1 μM, alamarBlue", "result": 59.5}, {"measurement": "Viability of EGFP-HttQ74 cells (mean), KO 11, 3 μM", "setting": "HCT116 DDI2-/- KO 11, 3 μM, alamarBlue", "result": 37.35}, {"measurement": "Viability of EGFP-HttQ74 cells (mean), WT, 1 μM", "setting": "HCT116 WT, 1 μM, alamarBlue", "result": 72.36}, {"measurement": "Viability of EGFP-HttQ74 cells (mean), WT, 3 μM", "setting": "HCT116 WT, 3 μM, alamarBlue", "result": 79.66}]}
